Results: patent publication US20030017976A1, “Therapeutic properties of liposome-encapsulated immunomodulators” (priority 1998, published 2003)

Tests used:
CT-26P colon carcinoma = assay: Combination therapy of CT-26P colon carcinoma with CPT-11 and oral liposomal JBT3002; format: in vivo, mouse; conditions: day 17
Procedure: This course of therapy was repeated weekly for about three weeks prior to tissue harvest. Experimental Groups/Procedures: 40 Balb/c mice were divided into 8 groups of 5 mice each. On day 0, the spleens of the mice were injected with 15,000 cultured CT-26P cells. The groups were then treated as follows: The spleens of Balb/c mice were injected with 15,000 cultured CT-26P colon carcinoma cells on day 0. […] Treated mice received two weeks of chemotherapy and three weeks of the macrophage activator. Tissues were harvested on day 17. The spleens and livers were weighed, the extent of metastasis was graded (denoted below) and histology prepared.

IL-15 = assay: RT-PCR of IL-15 in PEM and IEC6 cells; format: cell-based
Excerpt: To determine whether macrophages or epithelial cells respond to JBT 3002 by upregulating IL-1 5, the RT-PCR technique was used and the results are shown in FIG. 23.

N-hexadecanol-S-[2(R)-3-diodecanoyloxypropyl]-L-cysteinyl-L-alanyl-D-isoglutaminyl-glycyl-taurine sodium salt [JBT3002]
Spleen Weights, mean (CT-26P colon carcinoma; oral JBT3002 1 μg/dose in PC liposomes 3x/week alone): 1.137 ± 0.628 grams
Liver Weights, mean (CT-26P colon carcinoma; oral liposomal JBT3002 1 μg/dose 3x/week alone): 1.842 ± 0.498 grams
IL-15 expression in response to JBT 3002 (RT-PCR) (IL-15): Peritoneal exudate macrophages (PEM), but not intestinal cells (IEC6), upregulate IL-15 expression
